# Source: PMC7439407 (Science Advances, 2020)
# Molecular target: arginine repressor ArgR
# Assay: SPR
# Assay type: binding, Staphylococcus aureus
structure (smiles),measurement,value
"O=c1oc2ccccc2c(O)c1C(c1ccc(Cl)c(Cl)c1)c1c(O)c2ccccc2oc1=O [DCH, 3,3′-(3,4-dichlorobenzylidene)-bis-(4-hydroxycoumarin)]",Kd,0.082 µM
